Experimental data reported in ChEMBL document CHEMBL4831506, “Discovery of novel trimethoxyphenylbenzo[d]oxazoles as dual tubulin/PDE4 inhibitors capable of inducing apoptosis at G2/M phase arrest in glioma and lung cancer cells” (Eur J Med Chem, 2021).
pIC50: −log10 of the molar value.

Columns and labels:
MCF7 = assay: Antiproliferative activity against human MCF7 cells after 48 hrs by MTT assay; format: functional, cell-based; conditions: MCF7, 48 h
A549 [1] = assay: Antiproliferative activity against human A549 cells after 48 hrs by MTT assay; format: functional, cell-based; conditions: A549, 48 h
U-251 [2] = assay: Antiproliferative activity against human U-251 cells after 48 hrs by MTT assay; format: functional, cell-based; conditions: U-251, 48 h
NCI-H460 = assay: Antiproliferative activity against human NCI-H460 cells after 48 hrs by MTT assay; format: functional, cell-based; conditions: NCI-H460, 48 h
A549 [3] = assay: Cell cycle arrest in human A549 cells assessed as G0/G1 phase at 500 nM incubated for 24 hrs by propidium iodide staining based flow cytometry analysis (reference value: 79.14%); format: functional
Sus scrofa [4] = species: Sus scrofa; assay: Inhibition of pig brain tubulin polymerization at 10 uM by spectrometric method relative to control; format: tissue-based
U-251 [5] = assay: Induction of apoptosis in human U-251 cells assessed as increase in early apoptotic cells at 200 nM measured after 24 hrs by PI/FITC analysis (reference value: 1.12%); format: functional
A549 [6] = assay: Cell cycle arrest in human A549 cells assessed as G2/M phase at 500 nM measured after 24 hrs by propidium iodide staining based flow cytometry analysis (reference value: 6.08%); format: functional
U-251 [7] = assay: Induction of apoptosis in human U-251 cells assessed as increase in viable cells at 200 nM measured after 24 hrs by PI/FITC analysis (reference value: 98.3%); format: functional
U-251 [8] = assay: Induction of apoptosis in human U-251 cells assessed as increase in late apoptotic cells at 200 nM measured after 24 hrs by PI/FITC analysis (reference value: 0.311%); format: functional
A549 [9] = assay: Induction of apoptosis in human A549 cells assessed as increase in necrotic cells at 500 nM measured after 24 hrs by PI/FITC analysis (reference value: 0.365%); format: functional
U-251 [10] = assay: Induction of apoptosis in human U-251 cells assessed as increase in necrotic cells at 200 nM measured after 24 hrs by PI/FITC analysis (reference value: 0.301%); format: functional
A549 [11] = assay: Induction of apoptosis in human A549 cells assessed as increase in early apoptotic cells at 500 nM measured after 24 hrs by PI/FITC analysis (reference value: 0.955%); format: functional
A549 [12] = assay: Induction of apoptosis in human A549 cells assessed as increase in viable cells at 500 nM measured after 24 hrs by PI/FITC analysis (reference value: 98.4%); format: functional
U-251 [13] = assay: Cell cycle arrest in human U-251 cells assessed as S phase at 200 nM measured after 24 hrs by propidium iodide staining based flow cytometry analysis (reference value: 18.23%); format: functional
A549 [14] = assay: Cell cycle arrest in human A549 cells assessed as S phase at 500 nM measured after 24 hrs by propidium iodide staining based flow cytometry analysis (reference value: 14.78%); format: functional
Sus scrofa [15] = species: Sus scrofa; assay: (§1) Inhibition of pig brain tubulin polymerization at 1 uM by spectrometric method relative to control; format: tissue-based
U-251 [16] = assay: Cell cycle arrest in human U-251 cells assessed as G2/M phase at 200 nM measured after 24 hrs by propidium iodide staining based flow cytometry analysis (reference value: 14.43%); format: functional
U-251 [17] = assay: Cell cycle arrest in human U-251 cells assessed as G0/G1 phase at 200 nM measured after 24 hrs by propidium iodide staining based flow cytometry analysis (reference value: 67.34%); format: functional
[18] = molecular target: 3',5'-cyclic-AMP phosphodiesterase 4C (Homo sapiens, UniProt Q08493); assay: Inhibition of PDE4 CAT (unknown origin)
3',5'-cyclic-AMP phosphodiesterase 4C, sequence (Q08493 whole entry): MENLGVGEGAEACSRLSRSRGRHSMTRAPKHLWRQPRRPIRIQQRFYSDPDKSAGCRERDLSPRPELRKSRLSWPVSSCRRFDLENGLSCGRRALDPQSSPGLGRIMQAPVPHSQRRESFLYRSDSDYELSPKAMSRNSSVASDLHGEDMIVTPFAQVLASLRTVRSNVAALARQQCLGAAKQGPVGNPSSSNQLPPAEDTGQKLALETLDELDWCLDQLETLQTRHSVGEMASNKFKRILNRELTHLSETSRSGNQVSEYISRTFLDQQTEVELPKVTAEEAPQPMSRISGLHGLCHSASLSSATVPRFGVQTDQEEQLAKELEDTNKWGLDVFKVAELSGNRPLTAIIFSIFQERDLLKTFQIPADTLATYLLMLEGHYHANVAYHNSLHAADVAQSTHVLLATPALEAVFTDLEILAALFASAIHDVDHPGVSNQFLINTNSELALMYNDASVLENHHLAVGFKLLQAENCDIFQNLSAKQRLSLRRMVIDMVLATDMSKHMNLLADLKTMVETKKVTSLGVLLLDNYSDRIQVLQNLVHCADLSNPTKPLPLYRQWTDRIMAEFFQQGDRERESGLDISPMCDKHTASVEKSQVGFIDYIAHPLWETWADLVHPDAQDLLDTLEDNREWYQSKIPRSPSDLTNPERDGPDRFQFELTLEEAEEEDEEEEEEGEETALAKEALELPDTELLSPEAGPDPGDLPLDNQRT

A549 [19] = assay: Induction of apoptosis in human A549 cells assessed as increase in late apoptotic cells at 500 nM measured after 24 hrs by PI/FITC analysis (reference value: 0.955%); format: functional
[20] = as §1; format: tissue-based, Sus scrofa

| SMILES | pIC50 (MCF7) | pIC50 (A549 [1]) | pIC50 (U-251 [2]) | pIC50 (NCI-H460) | further results |
| --- | --- | --- | --- | --- | --- |
| COc1cc(-c2cccc3nc(-c4ccc(F)cc4)oc23)cc(OC)c1OC | < 4.60 | 5.06 | < 4.60 | 5.06 |  |
| COc1ccc(-c2nc3cccc(-c4cc(OC)c(OC)c(OC)c4)c3o2)cc1OC | < 4.60 | 5.55 | 5.89 | < 4.60 |  |
| COc1cc(-c2cccc3nc(-c4ccc(Cl)cc4)oc23)cc(OC)c1OC | < 4.60 | 5.25 | 5.80 | < 4.60 |  |
| COc1ccc(/C=C\c2cc(OC)c(OC)c(OC)c2)cc1O [COMBRETASTATIN A4] | 6.38 | 6.22 | 6.89 | 7.12 | Activity (A549 [3]): 37.63%; inhibition (Sus scrofa [4]): 94%; Activity (U-251 [5]): 4.02%; Activity (A549 [6]): 40.07%; Activity (U-251 [7]): 92.1%; Activity (U-251 [8]): 11.9%; Activity (A549 [9]): 0.412%; Activity (U-251 [10]): 1.96%; Activity (A549 [11]): 10.1%; Activity (A549 [12]): 77.9%; Activity (U-251 [13]): 22.47%; Activity (A549 [14]): 22.31%; inhibition (Sus scrofa [15]): 52%; Activity (U-251 [16]): 42.9%; Activity (U-251 [17]): 34.64% |
| COc1cc(-c2cccc3oc(-c4ccc(F)cc4)nc23)cc(OC)c1OC | < 4.60 | < 4.60 | < 4.60 | 4.66 |  |
| COc1cc(-c2cccc3nc(-c4ccccc4)oc23)cc(OC)c1OC | < 4.60 | 4.69 | 5.46 | 5.17 |  |
| COc1cc(-c2nc3cccc(-c4cc(OC)c(OC)c(OC)c4)c3o2)ccc1O | < 4.60 | 4.80 | 4.99 | 5.70 |  |
| COc1ccc(-c2nc3c(-c4cc(OC)c(OC)c(OC)c4)cccc3o2)cc1OC | < 4.60 | 4.70 | < 4.60 | 5.05 |  |
| COc1cc(-c2cccc3nc(-c4cccc(C)c4)oc23)cc(OC)c1OC | < 4.60 | 4.78 | < 4.60 | < 4.60 |  |
| COc1cc(-c2cccc3nc(-c4ccc(N)cc4)oc23)cc(OC)c1OC | < 4.60 | 6.14 | 5.98 | 6.51 | inhibition (Sus scrofa [4]): 36%; inhibition (Sus scrofa [15]): 11% |
| COc1cc(-c2cccc3oc(-c4ccc(C)cc4)nc23)cc(OC)c1OC | < 4.60 | 4.69 | 4.79 | 5.51 |  |
| COc1ccc(-c2nc3cccc(-c4cc(OC)c(OC)c(OC)c4)c3o2)cc1F | < 4.60 | 5.74 | 5.77 | 5.55 |  |
| COc1ccc(-c2nc3c(-c4cc(OC)c(OC)c(OC)c4)cccc3o2)cc1F | < 4.60 | < 4.60 | 4.71 | 4.70 |  |
| COc1ccc(-c2cccc3nc(-c4ccc5cc[nH]c5c4)oc23)c(OC)c1OC | < 4.60 | 5.02 | 5.02 | < 4.60 |  |
| COc1cc(OC)cc(-c2nc3c(-c4cc(OC)c(OC)c(OC)c4)cccc3o2)c1 | < 4.60 | 4.79 | < 4.60 | 5.24 |  |
| COc1cccc(-c2nc3cccc(-c4cc(OC)c(OC)c(OC)c4)c3o2)c1 | < 4.60 | 5.46 | < 4.60 | < 4.60 |  |

| SMILES | pIC50 (MCF7) | pIC50 (A549 [1]) | pIC50 (U-251 [2]) | pIC50 (NCI-H460) | further results |
| --- | --- | --- | --- | --- | --- |
| COc1cc(-c2cccc3nc(-c4cccc(Cl)c4)oc23)cc(OC)c1OC | < 4.60 | < 4.60 | 4.73 | < 4.60 |  |
| COc1cc(-c2cccc3nc(-c4ccc(C)cc4)oc23)cc(OC)c1OC | < 4.60 | 6.17 | 5.49 | 5.72 | inhibition (Sus scrofa [4]): 18% |
| COc1cc(-c2cccc3oc(-c4ccccc4)nc23)cc(OC)c1OC | < 4.60 | < 4.60 | < 4.60 | 5.05 |  |
| COc1cc(-c2cccc3nc(-c4cccc(N)c4)oc23)cc(OC)c1OC | < 4.60 | 5.33 | 5.66 | 5.59 | inhibition (Sus scrofa [4]): 19%; inhibition (Sus scrofa [15]): 14% |
| COc1cc(-c2cccc3oc(-c4ccc(Cl)cc4)nc23)cc(OC)c1OC | < 4.60 | < 4.60 | < 4.60 | 5.07 |  |
| COc1ccc(-c2nc3cccc(-c4cc(OC)c(OC)c(OC)c4)c3o2)cc1 | < 4.60 | 5.66 | < 4.60 | 5.46 |  |
| COc1cc(-c2cccc3nc(-c4ccco4)oc23)cc(OC)c1OC | < 4.60 | 4.99 | 4.97 | 5.59 | inhibition (Sus scrofa [4]): 0%; pIC50 [18]: 5.48 |
| COc1cc(-c2cccc3oc(-c4cccc(F)c4)nc23)cc(OC)c1OC | < 4.60 | < 4.60 | < 4.60 | < 4.60 |  |
| COc1cc2c(c(OC)c1OC)-c1ccc(OC)c(=O)cc1[C@@H](NC(C)=O)CC2 [COLCHICINE] | 7.40 | 7.62 | 7.77 |  |  |
| COc1ccc(C2CNC(=O)C2)cc1OC1CCCC1 (stereo not drawn) [ROLIPRAM] | < 4.00 | < 4.00 | < 4.00 | < 4.00 | Activity (A549 [3]): 79.7%; Activity (U-251 [5]): 1.96%; Activity (A549 [6]): 4.56%; Activity (U-251 [7]): 96.4%; Activity (U-251 [8]): 0.865%; Activity (A549 [9]): 0.216%; Activity (U-251 [10]): 0.745%; Activity (A549 [11]): 1.34%; Activity (A549 [19]): 0.291%; Activity (A549 [12]): 98.2%; Activity (U-251 [13]): 16.85%; Activity (A549 [14]): 15.73%; Activity (U-251 [16]): 14.73%; Activity (U-251 [17]): 68.42% |
| COc1cc(-c2cccc3nc(-c4cccc(F)c4)oc23)cc(OC)c1OC | < 4.60 | 5.59 | 5.54 | 5.48 |  |
| COc1cc(-c2cccc3nc(-c4ccc(Br)cc4)oc23)cc(OC)c1OC | < 4.60 | < 4.60 | < 4.60 | < 4.60 |  |
| COc1cc(-c2cccc3nc(-c4cccs4)oc23)cc(OC)c1OC | < 4.60 | 4.90 | 5.52 | 5.80 | inhibition (Sus scrofa [4]): 0%; pIC50 [18]: 6.24 |
| COc1cc(-c2cccc3nc(-c4cccc(Br)c4)oc23)cc(OC)c1OC | < 4.60 | 5.68 | 5.17 | 5.42 |  |
| COc1cc(-c2cccc3nc(-c4cccc(O)c4)oc23)cc(OC)c1OC | < 4.60 | 5.70 | 5.26 | 5.72 | inhibition (Sus scrofa [4]): 43%; pIC50 [20]: 5.30 |
